# pIC50: −log10 of the molar value. Where two headings read alike, the source gives them in different places. Numbered stars: 1 amine (or outer) side, 2 acyl side, 3 side chain; on linkers, the order of the positions; unused ones are H or OH. Square brackets hold non-standard residues; d marks the D form. Peptide text beside a SMILES is read from it. * marks the point of attachment. ξ: configuration not given here. ξAbu(4,4-F2)ψ(COCO) = O=C(C(=O)[*:2])C(CC(F)F)N[*:1]; Dip = N[C@H](C(=O)O)C(c1ccccc1)c1ccccc1; X6 = O=C(NS(=O)(=O)c1ccccc1)C(CC(F)F)N*; X5 = O=C(c1nc2ccccc2s1)C(CC(F)F)N*; X8 = O=C(c1nc2ccccc2o1)C(CC(F)F)N*; X1 = O=C(c1ncc[nH]1)C(CC(F)F)N*; ξAla(CF3) = NC(CC(F)(F)F)C(=O)O; Cha = N[C@@H](CC1CCCCC1)C(=O)O; Ile(3ξ) = CCC(C)[C@H](N)C(=O)O; X3 = O=C(C(CC(F)F)N[*:1])[*:2]; Suc = O=C(CCC(=O)[*:2])[*:1]; X2 = O=C(c1ccco1)C(CC(F)F)N*; X4 = COC(=O)C(=O)C(CC(F)F)N*; X7 = O=C(c1nccs1)C(CC(F)F)N*; X9 = O=C(O)CC(CC(F)F)N*; NHBn = c1ccc(CN*)cc1
# Molecular target: T1, HCV NS3 protease (Hepatitis C virus genotype 1b, UniProt P26663)
# T1 construct: an NS3/4A complex comprising the NS3 protease domain
# T1 sequence (P26663 1027-1208, other chains not shown): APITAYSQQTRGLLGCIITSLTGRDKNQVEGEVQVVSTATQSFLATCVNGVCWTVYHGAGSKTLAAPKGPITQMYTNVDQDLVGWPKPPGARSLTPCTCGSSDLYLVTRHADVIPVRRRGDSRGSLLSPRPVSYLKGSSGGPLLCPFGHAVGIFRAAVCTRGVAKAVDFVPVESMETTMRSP
# Experiment: Inhibition of NS3 protease (HPLC cleavage assay, NS3/4A complex with Pep4AK, substrate peptide 4AB)
# Assay type: biochemical
# Settings: for IC50: Table 1 hexapeptides
# Experimental: Buffer solutions containing 80 μM Pep4AK were preincubated for 10 minutes with 10-200 nM protease and reactions were started by addition of substrate. Six duplicate data points at different substrate concentrations were used to calculate kinetic parameters. Incubation times were chosen in order to obtain <7% substrate conversion and reactions were stopped by addition of 40 μl 1% TFA. Cleavage of peptide substrates was determined by HPLC using a Merck-Hitachi chromatograph equipped with an autosampler. 80 μl samples were injected on a Lichrospher C18 reversed phase cartridge column (4×74 mm, 5 μm, Merck) and fragments were separated using a 10-40% acetonitrile gradient a 5%/min using a flow rate of 2.5 ml/min. Peak detection was accomplished by monitoring both the absorbance at 220 nm and tyrosine fluorescence (λex=260 nm, λem=305 nm). Cleavage products were quantitated by integration of chromatograms with respect to appropriate standards. Kinetic parameters were calculated from nonlinear least-squares fit of initial rates as a function of substrate concentration with the help of a Kaleidagraph software, assuming Michaelis-Menten kinetics.
# Ki values of peptide inhibitors were calculated from substrate titration experiments performed in the presence of increasing amounts of inhibitor. Experimental data sets were simultaneously fitted to eq.1 using a multicurve fit macro with the help of a Sigmaplot software: V=(VmaxS)/(Km(1+[…])+S); (eq.1)
# Alternatively, Ki values were derived from IC50 values, calculated using a four-parameter logistic function, according to eq.2: IC50−(1+S/Km)Ki (eq.2)
# [1] = cells printed in nM, read-out: IC50
# [2] = Table 3 capped dipeptide keto acids, read-out: IC50
# [3] = Table 4 indoline keto acids and related, read-out: IC50
# [4] = cells printed in μM, read-out: IC50
Structure (SMILES),pIC50 [2],pIC50 [3],also measured
"CC(=O)N[C@@H](CC(=O)O)C(=O)N[C@@H](CCC(=O)O)C(=O)N[C@H](C(=O)N[C@@H](CCC(=O)O)C(=O)N[C@@H](CC1CCCCC1)C(=O)NC(C=O)CC(F)F)C(c1ccccc1)c1ccccc1 (single isomer, unassigned) [Compound 1c (L)]",,,IC50 [1]: 0.5 nM
"CC(C)C[C@H](NC(=O)OCc1ccccc1)C(=O)NC(CC(F)F)C(=O)C(=O)O (single isomer, unassigned) [Compound 7a]",4.13,,
"CCCCC(=O)N[C@@H](CC(C)C)C(=O)NC(CC(F)F)C(=O)C(=O)O (single isomer, unassigned) [Compound 7b]",4.25,,
"CC(C)C[C@H](NC(=O)CN(CC(=O)O)C(=O)OCc1ccccc1)C(=O)NC(CC(F)F)C(=O)C(=O)O (single isomer, unassigned) [Compound 7i]",4.70,,
"CC(C)C[C@H](NC(=O)CC1(CC(=O)O)CCCC1)C(=O)NC(CC(F)F)C(=O)C(=O)O (single isomer, unassigned) [Compound 7l]",6.00,,
"CC(C)C[C@H](NC(=O)CC1(CC(=O)O)OCCO1)C(=O)NC(CC(F)F)C(=O)C(=O)O (single isomer, unassigned) [Compound 7p]",4.82,,
"CC(C)C[C@H](NC(=O)C1CCCCC1C(=O)O)C(=O)NC(CC(F)F)C(=O)C(=O)O (single isomer, unassigned) [Compound 8a]",4.49,,
"CC(C)C[C@H](NC(=O)Cc1ccccc1CC(=O)O)C(=O)NC(CC(F)F)C(=O)C(=O)O (single isomer, unassigned) [Compound 8b]",5.10,,
"CC(C)C[C@H](NC(=O)Cc1ccccc1C(=O)O)C(=O)NC(CC(F)F)C(=O)C(=O)O (single isomer, unassigned) [Compound 8e]",4.89,,
"CC(C)C[C@H](NC(=O)Cc1cccs1)C(=O)NC(CC(F)F)C(=O)C(=O)O (single isomer, unassigned) [Compound 8f]",4.38,,
"CC(C)C[C@H](NC(=O)c1ccccc1-c1ccccc1C(=O)O)C(=O)NC(CC(F)F)C(=O)C(=O)O (single isomer, unassigned) [Compound 8g]",5.40,,
"CC(C)C[C@H](NC(=O)C(Oc1cccc(C(=O)O)c1)c1ccccc1)C(=O)NC(CC(F)F)C(=O)C(=O)O (single isomer, unassigned) [Compound 8h]",5.22,,
"CC(C)C[C@H](NC(=O)[C@H](O)c1cccs1)C(=O)NC(CC(F)F)C(=O)C(=O)O (single isomer, unassigned) [Compound 8s]",4.74,,
"CC(C)C[C@H](NC(=O)C1Cc2ccccc2N1)C(=O)NC(CC(F)F)C(=O)C(=O)O (single isomer, unassigned) [Compound 9a]",,4.30,
"CCC(CC)CC1(C(=O)N[C@@H](CC(C)C)C(=O)NC(CC(F)F)C(=O)C(=O)O)Cc2ccccc2N1 (single isomer, unassigned) [Compound 9g]",,4.82,
"CC(C)C[C@H](NC(=O)C1(CC2CC2)Cc2ccccc2N1)C(=O)NC(CC(F)F)C(=O)C(=O)O (single isomer, unassigned) [Compound 9i]",,4.70,
"CC(C)C[C@H](NC(=O)C1(Cc2ccccc2Cl)Cc2ccccc2N1)C(=O)NC(CC(F)F)C(=O)C(=O)O (single isomer, unassigned) [Compound 9q]",,5.30,
"CC(C)C[C@H](NC(=O)C1(Cc2cccc(C(=O)O)c2)Cc2ccccc2N1)C(=O)NC(CC(F)F)C(=O)C(=O)O (single isomer, unassigned) [Compound 9u]",,6.10,
"COc1ccc2c(c1)NC(C(=O)N[C@@H](CC(C)C)C(=O)NC(CC(F)F)C(=O)C(=O)O)C2 (single isomer, unassigned) [Compound 10a]",,4.60,
"COc1ccc2c(c1)NC(CC(C)C)(C(=O)N[C@@H](CC(C)C)C(=O)NC(CC(F)F)C(=O)C(=O)O)C2 (single isomer, unassigned) [Compound 10b]",,4.62,

Structure (SMILES),pIC50 [2],pIC50 [3],also measured
"CC(C)C[C@H](NC(=O)C1Cc2ccc(OC3CCCC3)cc2N1)C(=O)NC(CC(F)F)C(=O)C(=O)O (single isomer, unassigned) [Compound 10e]",,4.74,
"CC(C)C[C@H](NC(=O)C1Cc2ccc(OCC(=O)O)cc2N1)C(=O)NC(CC(F)F)C(=O)C(=O)O (single isomer, unassigned) [Compound 10f]",,5.00,
"CC(C)C[C@H](NC(=O)C1Cc2ccc(OC3CCS(=O)(=O)CC3)cc2N1)C(=O)NC(CC(F)F)C(=O)C(=O)O (single isomer, unassigned) [Compound 10i]",,4.52,
"CC(C)CC1c2ccccc2NC1C(=O)N[C@@H](CC(C)C)C(=O)NC(CC(F)F)C(=O)C(=O)O (single isomer, unassigned) [Compound 12]",,4.59,
"CC(C)C[C@H](NC(=O)c1cc2ccccc2[nH]1)C(=O)NC(CC(F)F)C(=O)C(=O)O (single isomer, unassigned) [Compound 13]",,4.15,
"CC(C)C[C@H](NC(=O)c1[nH]c2ccccc2c1OC(C(=O)O)c1cccc(Cl)c1)C(=O)NC(CC(F)F)C(=O)C(=O)O (single isomer, unassigned) [Compound 14]",,5.00,
CSCC[C@H](NC(=O)[C@H](CCC(=O)O)NC(=O)[C@H](CC(=O)O)NC(C)=O)C(=O)N[C@@H](CCC(=O)O)C(=O)N[C@@H](CCC(=O)O)C(=O)NC(CC(F)F)C(=O)O (stereo partly drawn) [Compound 1a] (Ac-DEMEE[X3]-OH),,,"pIC50 (IC50, Table 1 hexapeptides, cell printed without unit): 5.52"
"CC(=O)N[C@@H](CC(=O)O)C(=O)N[C@@H](CCC(=O)O)C(=O)N[C@H](C(=O)N[C@@H](CCC(=O)O)C(=O)N[C@@H](CC1CCCCC1)C(=O)NC(CC(F)F)C(=O)C(=O)O)C(c1ccccc1)c1ccccc1 (stereo partly drawn) [Compound 1d] (Ac-DE[Dip]E[Cha]-{ξAbu(4,4-F2)ψ(COCO)})",,,IC50 [1]: 0.4 nM
"CC(=O)N[C@@H](CC(=O)O)C(=O)N[C@@H](CCC(=O)O)C(=O)N[C@H](C(=O)N[C@@H](CCC(=O)O)C(=O)N[C@@H](CC1CCCCC1)C(=O)NC(CC(F)F)C(=O)C(=O)NCc1ccccc1)C(c1ccccc1)c1ccccc1 (stereo partly drawn) [Compound 1e] (Ac-DE[Dip]E[Cha][ξAbu(4,4-F2)ψ(COCO)]-NHBn)",,,IC50 [1]: 5 nM
COC(=O)C(=O)C(CC(F)F)NC(=O)[C@H](CC1CCCCC1)NC(=O)[C@H](CCC(=O)O)NC(=O)[C@@H](NC(=O)[C@H](CCC(=O)O)NC(=O)[C@H](CC(=O)O)NC(C)=O)C(c1ccccc1)c1ccccc1 (stereo partly drawn) [Compound 1f] (Ac-DE[Dip]E[Cha]-X4),,,IC50 [1]: 800 nM
CC(=O)N[C@@H](CC(=O)O)C(=O)N[C@@H](CCC(=O)O)C(=O)N[C@H](C(=O)N[C@@H](CCC(=O)O)C(=O)N[C@@H](CC1CCCCC1)C(=O)NC(CC(F)(F)F)C(=O)O)C(c1ccccc1)c1ccccc1 (stereo partly drawn) [Compound 1g] (Ac-DE[Dip]E[Cha][ξAla(CF3)]-OH),,,IC50 [1]: 100 nM
CC(=O)N[C@@H](CC(=O)O)C(=O)N[C@@H](CCC(=O)O)C(=O)N[C@H](C(=O)N[C@@H](CCC(=O)O)C(=O)N[C@@H](CC1CCCCC1)C(=O)NC(CC(=O)O)CC(F)F)C(c1ccccc1)c1ccccc1 (stereo partly drawn) [Compound 1h] (Ac-DE[Dip]E[Cha]-X9),,,IC50 [4]: 3000 nM
CC(=O)N[C@@H](CC(=O)O)C(=O)N[C@@H](CCC(=O)O)C(=O)N[C@H](C(=O)N[C@@H](CCC(=O)O)C(=O)N[C@@H](CC1CCCCC1)C(=O)NC(CC(F)F)C(=O)c1nc2ccccc2s1)C(c1ccccc1)c1ccccc1 (stereo partly drawn) [Compound 1i] (Ac-DE[Dip]E[Cha]-X5),,,IC50 [1]: 150 nM
CC(=O)N[C@@H](CC(=O)O)C(=O)N[C@@H](CCC(=O)O)C(=O)N[C@H](C(=O)N[C@@H](CCC(=O)O)C(=O)N[C@@H](CC1CCCCC1)C(=O)NC(CC(F)F)C(=O)c1nc2ccccc2o1)C(c1ccccc1)c1ccccc1 (stereo partly drawn) [Compound 1j] (Ac-DE[Dip]E[Cha]-X8),,,IC50 [1]: 600 nM
CC(=O)N[C@@H](CC(=O)O)C(=O)N[C@@H](CCC(=O)O)C(=O)N[C@H](C(=O)N[C@@H](CCC(=O)O)C(=O)N[C@@H](CC1CCCCC1)C(=O)NC(CC(F)F)C(=O)c1nccs1)C(c1ccccc1)c1ccccc1 (stereo partly drawn) [Compound 1k] (Ac-DE[Dip]E[Cha]-X7),,,IC50 [4]: 1000 nM
CC(=O)N[C@@H](CC(=O)O)C(=O)N[C@@H](CCC(=O)O)C(=O)N[C@H](C(=O)N[C@@H](CCC(=O)O)C(=O)N[C@@H](CC1CCCCC1)C(=O)NC(CC(F)F)C(=O)c1ncc[nH]1)C(c1ccccc1)c1ccccc1 (stereo partly drawn) [Compound 1l] (Ac-DE[Dip]E[Cha]-X1),,,IC50 [4]: 6000 nM
CC(=O)N[C@@H](CC(=O)O)C(=O)N[C@@H](CCC(=O)O)C(=O)N[C@H](C(=O)N[C@@H](CCC(=O)O)C(=O)N[C@@H](CC1CCCCC1)C(=O)NC(CC(F)F)C(=O)c1ccco1)C(c1ccccc1)c1ccccc1 (stereo partly drawn) [Compound 1m] (Ac-DE[Dip]E[Cha]-X2),,,IC50 [4]: 7000 nM
CSCC[C@H](NC(=O)[C@H](CCC(=O)O)NC(=O)[C@H](CC(=O)O)NC(C)=O)C(=O)N[C@@H](CCC(=O)O)C(=O)N[C@@H](CCC(=O)O)C(=O)NC(C=O)CC(F)F (stereo partly drawn) [Compound 1n] (Ac-DEMEE[X3]-aldehyde),,,IC50 [1]: 148 nM
CCC(C)[C@H](NC(=O)[C@@H](NC(=O)[C@H](CCC(=O)O)NC(=O)CCC(=O)O)C(c1ccccc1)c1ccccc1)C(=O)N[C@@H](CC1CCCCC1)C(=O)NC(CC(F)F)C(=O)NS(=O)(=O)c1ccccc1 (stereo partly drawn) [Compound 1o] (Suc-E[Dip][Ile(3ξ)][Cha]-X6),,,IC50 [1]: 800 nM

# Source: patent US6867284B1, “Peptide inhibitors of hepatitis C virus NS3 protease” (Istituto di Ricerche di Biologia Molecolare P. Angeletti …, priority 1998, dated 2005)
